Laboratory results from PMC6521598, “Identification of GLPG/ABBV-2737, a Novel Class of Corrector, Which Exerts Functional Synergy With Other CFTR Modulators” (Frontiers in Pharmacology, 2019).

Columns and labels:
[1] = parameters: method as in Brearley et al., 2017; conditions: healthy volunteers; ref Brearley et al., 2017; cited from earlier work
wild type CFTR = wild type CFTR (Homo sapiens, UniProt P13569); assay: CFTR activity in normal HBE cells (NHBE); type: cell-based; parameters: University of North Carolina; host or cells: primary normal human bronchial epithelial cells; conditions: forskolin 0.1 or 0.3 μM, potentiator GLPG2451 10 μM added afterwards
Sequence of wild type CFTR (P13569 whole entry): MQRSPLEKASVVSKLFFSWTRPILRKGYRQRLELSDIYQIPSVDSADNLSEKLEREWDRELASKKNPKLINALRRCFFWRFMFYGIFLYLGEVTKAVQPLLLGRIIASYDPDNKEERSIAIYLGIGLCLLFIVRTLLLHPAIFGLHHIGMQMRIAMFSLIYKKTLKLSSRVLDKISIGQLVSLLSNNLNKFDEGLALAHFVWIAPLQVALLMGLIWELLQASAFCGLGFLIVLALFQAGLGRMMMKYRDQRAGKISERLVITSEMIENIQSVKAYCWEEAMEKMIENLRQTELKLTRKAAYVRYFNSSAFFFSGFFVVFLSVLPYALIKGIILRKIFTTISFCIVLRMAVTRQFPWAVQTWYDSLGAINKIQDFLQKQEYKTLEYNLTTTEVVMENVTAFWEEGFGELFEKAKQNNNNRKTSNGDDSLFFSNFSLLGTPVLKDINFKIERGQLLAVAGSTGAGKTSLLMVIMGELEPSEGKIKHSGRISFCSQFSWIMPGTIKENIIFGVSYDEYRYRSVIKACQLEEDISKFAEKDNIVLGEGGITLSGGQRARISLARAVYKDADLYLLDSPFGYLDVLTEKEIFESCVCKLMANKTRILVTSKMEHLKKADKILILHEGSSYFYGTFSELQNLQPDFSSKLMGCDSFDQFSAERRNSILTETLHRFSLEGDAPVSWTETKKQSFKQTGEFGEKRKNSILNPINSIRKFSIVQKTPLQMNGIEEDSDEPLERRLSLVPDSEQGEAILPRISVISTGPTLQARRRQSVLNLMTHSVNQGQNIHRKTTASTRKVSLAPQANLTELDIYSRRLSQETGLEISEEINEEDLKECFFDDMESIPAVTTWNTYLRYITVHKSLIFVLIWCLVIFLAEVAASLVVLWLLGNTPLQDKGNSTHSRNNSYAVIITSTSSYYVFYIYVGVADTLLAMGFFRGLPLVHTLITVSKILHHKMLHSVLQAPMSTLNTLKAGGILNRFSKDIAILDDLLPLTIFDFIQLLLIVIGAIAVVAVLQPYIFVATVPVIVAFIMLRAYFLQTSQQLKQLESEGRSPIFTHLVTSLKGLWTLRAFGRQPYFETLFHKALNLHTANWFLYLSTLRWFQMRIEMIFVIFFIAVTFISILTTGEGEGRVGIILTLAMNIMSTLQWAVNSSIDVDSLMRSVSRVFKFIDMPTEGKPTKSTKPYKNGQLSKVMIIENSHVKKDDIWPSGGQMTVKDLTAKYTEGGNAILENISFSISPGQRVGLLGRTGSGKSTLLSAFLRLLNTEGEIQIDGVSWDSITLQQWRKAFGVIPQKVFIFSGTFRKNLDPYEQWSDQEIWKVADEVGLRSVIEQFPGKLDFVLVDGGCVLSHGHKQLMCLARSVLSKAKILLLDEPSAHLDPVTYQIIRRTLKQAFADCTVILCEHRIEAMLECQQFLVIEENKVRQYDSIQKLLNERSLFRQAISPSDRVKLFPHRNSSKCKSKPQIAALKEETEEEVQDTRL
Experimental: Bronchial epithelial cells isolated from transplanted lungs from normal (wt CFTR) or CF patients homozygous for the F508del CFTR mutation, were obtained from McGill University (Montreal, QC, Canada) and University of North Carolina (Chapel Hill, NC, United States). Cells were isolated from lungs obtained from donors undergoing a planned transplantation. These primary cells were cultured directly on type IV collagen-coated polycarbonate Transwell supports with a diameter of 6.5 mm and pore size of 0.4 μm (Costar, #3397) for 18–25 days in air liquid (ali) interface essentially as previously described ([Fulcher et al., 2005]) for TECC. A similar cell culture protocol was used for Ussing chambers but using type IV collagen-coated polycarbonate Millicell supports with a diameter of 12 mm and a pore size of […] (Millicell, PIHP01250).
Corrector and/or potentiator compound(s) were added on the basolateral side of the HBEs for 24 h to rescue F508del CFTR. […] The transepithelial potential (PD) and transepithelial resistance (Rt) were measured in an open circuit and transformed to Ieq using Ohm’s law. […]
FIGURE 6 Effects of GLPG2737 on normal human bronchial epithelial cells (NHBE) and HEK cells expressing WT CFTR. […] (D) NHBE treated for 24 h with 1 μM GLPG2737 or DMSO (control), CFTR channel was activated with either 0.1 μM or 0.3μM forskolin, measured Isc shown in gray. […]

F508del CFTR = F508del CFTR (Homo sapiens, UniProt P13569, DEL508-508); assay: Western blot (Band B/C) in CSE-MEM cells; type: cell-based; parameters: University of North Carolina; host or cells: primary human bronchial epithelial cells, F508del/F508del donors; conditions: 24 h, compound alone
Sequence of F508del CFTR (P13569 with tags, fused parts or gaps DEL508-508): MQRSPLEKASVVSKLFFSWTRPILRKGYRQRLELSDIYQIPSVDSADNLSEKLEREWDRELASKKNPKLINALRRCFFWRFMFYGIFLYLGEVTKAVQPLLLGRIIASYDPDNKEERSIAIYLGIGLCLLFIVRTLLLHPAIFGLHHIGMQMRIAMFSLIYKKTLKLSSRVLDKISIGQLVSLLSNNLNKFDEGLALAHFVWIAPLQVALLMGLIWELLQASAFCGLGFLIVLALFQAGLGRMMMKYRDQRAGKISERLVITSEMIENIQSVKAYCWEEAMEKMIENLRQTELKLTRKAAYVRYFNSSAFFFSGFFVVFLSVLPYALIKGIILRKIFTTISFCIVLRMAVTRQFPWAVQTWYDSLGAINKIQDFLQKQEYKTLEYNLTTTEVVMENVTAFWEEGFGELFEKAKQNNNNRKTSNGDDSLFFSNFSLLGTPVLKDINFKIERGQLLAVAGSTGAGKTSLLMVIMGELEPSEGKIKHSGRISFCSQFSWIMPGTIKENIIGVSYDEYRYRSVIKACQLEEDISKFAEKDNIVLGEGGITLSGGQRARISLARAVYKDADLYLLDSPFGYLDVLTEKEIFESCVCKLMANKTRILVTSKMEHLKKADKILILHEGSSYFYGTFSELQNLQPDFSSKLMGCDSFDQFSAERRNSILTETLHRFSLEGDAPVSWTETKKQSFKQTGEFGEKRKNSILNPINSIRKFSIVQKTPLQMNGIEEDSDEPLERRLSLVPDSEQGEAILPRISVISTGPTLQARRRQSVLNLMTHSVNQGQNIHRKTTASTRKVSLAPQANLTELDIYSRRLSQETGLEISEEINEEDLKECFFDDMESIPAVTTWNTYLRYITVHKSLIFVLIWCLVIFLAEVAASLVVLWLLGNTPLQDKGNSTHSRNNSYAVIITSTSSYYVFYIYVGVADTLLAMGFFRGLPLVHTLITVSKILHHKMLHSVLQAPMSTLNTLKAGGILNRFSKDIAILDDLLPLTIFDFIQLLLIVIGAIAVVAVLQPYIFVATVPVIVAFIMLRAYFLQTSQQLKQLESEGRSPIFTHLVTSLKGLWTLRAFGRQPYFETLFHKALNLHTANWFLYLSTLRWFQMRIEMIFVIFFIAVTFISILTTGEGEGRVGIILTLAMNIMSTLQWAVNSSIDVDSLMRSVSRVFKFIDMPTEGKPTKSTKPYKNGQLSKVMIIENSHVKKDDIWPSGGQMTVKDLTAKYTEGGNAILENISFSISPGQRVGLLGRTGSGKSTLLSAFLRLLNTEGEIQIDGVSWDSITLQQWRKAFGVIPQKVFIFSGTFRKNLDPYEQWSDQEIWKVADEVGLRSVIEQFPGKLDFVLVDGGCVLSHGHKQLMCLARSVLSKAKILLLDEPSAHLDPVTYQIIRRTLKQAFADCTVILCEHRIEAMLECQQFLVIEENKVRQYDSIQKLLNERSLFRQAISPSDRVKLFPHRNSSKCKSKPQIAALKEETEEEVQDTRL
Experimental: For Western blot, U2OS EA-MEM F508del CFTR (CSE-MEM) cells were seeded in six well plates at a density of 2.5e6 cells/well on day 1 and incubated at 37°C and 5% CO2. Cells were treated with corrector compounds on day 2 and were lysed 24 h later. For the lysis, cells were washed with 1 ml PBS and incubated with 300 μl cell dissociation solution/well (Sigma, Cat No. C5789-100ML) for 15 min at 37°C and 5% CO2. Medium was collected and centrifuged for 5 min at 1,000 rpm and the supernatant removed. The pellet was re-suspended for 30 min on ice in the lysis buffer containing 1% NP-40, 0.5% sodium deoxycholate, 200 mM NaCl, 10 mM Tris pH 7.8, 1 mM EDTA and a protease inhibitor cocktail tablet from Roche (Cat No. 11873580001). For gel electrophoresis, 2.5 μl 10X Nupage reducing agent (Invitrogen, Cat No. NP0004) and 6 μl 4X Nupage sample buffer (Invitrogen, Cat No. NP0007) were added to 17 μl lysate and incubated for 15 min at 37°C. […]

Band C (mature complex-glycosylated F508del CFTR) (F508del CFTR): confirmed
SMILES: COC1CCN(C2CCN(c3cc(C(=O)NS(=O)(=O)N(C)C)nc4c3c(C3CCC3)nn4-c3ccc(F)cc3)CC2)CC1 [GLPG2737]
observed exposure in humans [1]: dose linear
CFTR activity (wild type CFTR): reduced CFTR activity which could be rescued upon addition of a potentiator
